Laboratory results: patent US6194378A, “Fibronectin peptides-based extracellular matrix for wound healing” (The Research Foundation of State University of New York, priority 1998, dated 2001)

What was measured:
[1] = system: human adult dermal fibroblasts; assay: two-dimensional outmigration of fibroblasts from contracted collagen gels over protein coated surfaces; assay type: cell-based; conditions: for effect of synthetic peptide added to the outmigration assay on migration of fibroblasts onto dried FN: FN coated plates
Procedure: (§1) Primary cultures of human adult dermal fibroblasts, acquired from Marcia Simon (Living Skin Bank, SUNY at Stony Brook), the ATCC (Bethesda, Md.), or the NIA (Bethesda, Md.), are cultured in Dulbecco's modified Eagle's medium (DMEM, Life Technologies) containing 42 mM sodium bicarbonate and supplemented with 100 U/ml penicillin, 100 μg/ml streptomycin, and 10% fetal bovine serum (FBS, HyClone, Logan, Utah), at 37° C. and 5% CO2 /95% air in a humidified atmosphere. The cells are used between passages 4 and 12.
(§2) Fibroblast cultures at 80% confluence are harvested by treatment with 0.05% trypsin/0.01% EDTA. Trypsin is inactivated by addition of soy bean trypsin inhibitor in PBS containing 0.2% BSA. The cells are washed twice with DMEM+2% BSA and resuspended at a concentration of 1×10^6 cells/ml. The fibroblasts are mixed with neutralized collagen (Vitrogen 100, Celtrix Labs., Santa Clara, Calif.), 2% BSA, 30 ng/ml PDGF-BB, 30 μg/ml fibronectin, and concentrated DMEM so that the final concentration of DMEM and sodium bicarbonate is 1x. 600 μl of the cell mixture is added to the wells of a 24-well tissue culture plate, which has been precoated with 2% BSA. The collagen is allowed to polymerize at 37° C. The final concentration of collagen is 1.8 mg/ml and each gel contains 6×10^4 cells. After two hours incubation, the gels are gently detached from the plastic surface to allow contraction with the addition of 0.5 ml DMEM+2% BSA and 30 ng/ml PDGF-BB per well. The gels are incubated overnight at 37° C. in 100% humidity, 5% CO2 and 95% air.
(§3) Fibronectin, its fragments or recombinant domains were diluted with concentrated DMEM to the appropriate concentration. Aliquots of 450 μl protein solution are added to the wells of 24-well tissue culture plates (Becton-Dickinson, Lincoln Park, N.J.). After a 2 hour incubation at 37° C. in 5% CO2, plates were dried overnight at room temperature under sterile conditions.
Plates coated with dried proteins were washed once with PBS and incubated with 2% BSA for 1 hour at 37° C. to block nonspecific binding sites. After washing the plates three times with PBS, contracted-collagen gel organotypic constructs were attached to the coated plates. DMEM, 2% BSA and 30 ng/ml PDGF-BB was added to assay plates so that the medium was level with the top of the collagen gel.
For preparation of "gold standard" transmigration assays containing a dermal organotypic construct surrounded by a fibrin clot as previously described (Greiling and Clark 1997), dried fibrin fibril-coated dishes are washed once with PBS and fibroblast-contracted collagen gels are placed on the surface. Fibrinogen, at a final concentration of 300 μg/ml, is mixed with DMEM and 1.0 U/ml thrombin, added to the wells so that the solution is level with the top of the collagen gel, and allowed to clot at room temperature for 30 min. When needed, other supplements such as 30 ng/ml PDGF-BB are added to the mixture. […] All migration assays are quantified after a 24 hour incubation at 37° C. in 100% humidity, 5% CO2 and 95% air.
The number of migrated cells was quantified under a Nikon inverted phase microscope by visually counting identifiable cell nuclei located outside of the contracted collagen gel in the fibrin gel (transmigration assay) or on the matrix (outmigration assay). Within a given experiment each condition was run in triplicate and means ±SD calculated. […] Statistical differences among conditions can be determined by ANOVA.

[2] = system: corneal epithelial wound; conditions: cited from earlier work
[3] = system: human adult dermal fibroblasts; assay: three-dimensional transmigration from collagen gel into fibrin gel; assay type: cell-based
Procedure: as §1, §2
For preparation of "gold standard" transmigration assays containing a dermal organotypic construct surrounded by a fibrin clot as previously described (Greiling and Clark 1997), dried fibrin fibril-coated dishes are washed once with PBS and fibroblast-contracted collagen gels are placed on the surface. Fibrinogen, at a final concentration of 300 μg/ml, is mixed with DMEM and 1.0 U/ml thrombin, added to the wells so that the solution is level with the top of the collagen gel, and allowed to clot at room temperature for 30 min. When needed, other supplements such as 30 ng/ml PDGF-BB are added to the mixture. For HA 3-dimensional transmigration, wells are coated overnight at 37° C. with an appropriate solution of HA. The next day a fibroblast-contracted collagen gel is placed on the HA-coated well in DMEM, with or without 30 ng/ml PDGF-BB, is added so that the solution is level with the top of the collagen gels. All migration assays are quantified after a 24 hour incubation at 37° C. in 100% humidity, 5% CO2 and 95% air.
The number of migrated cells was quantified under a Nikon inverted phase microscope by visually counting identifiable cell nuclei located outside of the contracted collagen gel in the fibrin gel (transmigration assay) or on the matrix (outmigration assay). Within a given experiment each condition was run in triplicate and means ±SD calculated. All experiments were repeated at least three times. Statistical differences among conditions can be determined by ANOVA.
The extracellular matrix of the present invention was tested by use of the in vitro model as described in U.S. patent application Ser. No. 08/723,789, which is hereby incorporated by reference. The basis of the in vitro model is a contracted collagen gel containing fibroblasts which acquire a tissue-like phenotype within the collagen matrix. Surrounding the collagen gel, or dermal equivalent, with a fibrin clot produces a simple inside-outside model of the early cutaneous wound (FIG. 1). Without an added stimulus, no more than a few of the normal adult human dermal fibroblasts within the collagen gel would migrate into the fibrin gel. […]

[4] = system: human adult dermal fibroblasts; assay: fibroblast adhesion assay; assay type: cell-based
Procedure: as §1, §3
Assay plates are prepared as described under fibroblast migration assays. The assay for measuring fibroblast adhesion to matrix proteins are performed essentially as described (Gailit et al. 1993) except that the cell concentration is lowered to 100,000 cells/ml or 10,000 cells/well. […] The absorbance at 590 nm is measured with a dual wavelength microtiter plate reader (THERMOmax, Molecular Devices, Menlo Park, Calif.) and the reading corrected for light scattering by subtraction of the absorbance at 450 nm.

CS1: synthetic peptide from the IIICS segment of FN, SEQ ID NO:3 as tested
effect of synthetic peptide added to the outmigration assay on migration of fibroblasts onto dried FN [1]: slightly enhancing effect in the higher concentrations

chondroitin sulfate
effect on wound closure [2]: did not affect wound closure

fibronectin [FN]
effect of reduction and alkylation of FN dimer to the monomeric state on ability to mediate migration [1]: did not affect | percent migration of that observed on FN, no additional protein added to plates ([1]; plates coated with 120 nmol/l protein, mean ± SD, triplicate, FN normalized to 100%): 100 ± 2.7% | transmigration on inclusion of FN in the collagen gel and in the fibrin gel ([3]; 30 μg/ml FN in each gel): restored transmigration to a normal level | transmigration on addition of FN to the FN-depleted fibrin gel ([3]; FN added to fibrin gel): restored | FN concentration giving optimal cell movement ([3]; FN added to fibrin gel, FN:fibrinogen ratio 1:10): 30 µg/mL | most effective FN concentration in each gel ([3]; FN in both collagen gel and fibrin gel, 10, 30, or 100 μg/ml tested): 30 µg/mL | decrease of fibroblast transmigration into the fibrin clot after removal of FN ([3]; FN removed from fibrinogen by gelatin affinity chromatography, 30 ng/ml PDGF-BB): about 80% | transmigration with FN-free collagen gels ([3]; serum omitted, collagen gel contracted with PDGF-BB): no transmigration occurred | effect of reduction and alkylation of FN dimer to the monomeric state on ability to mediate adhesion [4]: did not affect

peptide I: synthetic peptide from the heparin II binding domain of FN, SEQ ID NO:6 (YEKPGSPRREVVPRPRGV)
effect of synthetic peptide added to the outmigration assay on migration of fibroblasts onto dried FN [1]: inhibited the migration of fibroblasts onto dried FN in a dose-dependent manner | effect of synthetic peptide on migration over collagen ([1]; collagen coated assay plates): inhibitory effect in a dose-dependent manner
